Converted amounts (≈) assume the structure as drawn. Where two headings read alike, the source gives them in different places.
Key:
[1] = tested on: BV2 (mouse microglia) cell line; assay: pHrodo-myelin phagocytosis/cell viability high content imaging assay: viability (cell count, nuclear area, nuclear intensity); settings: for 1. Cell count (% control) / 2. Nuclear Area (% Control) / 3. Nuclear DNA Intensity (% control): 48 hours treatment
How it was run: (§1)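 Cells adhered overnight, then were exposed to compounds at a single 10 μM for 48 h in total, with pHrodo-myelin added for the last 20 h. High-content imaging gave cell count per well as the main viability measure plus mean nuclear intensity per cell. Duplicate wells were averaged and expressed as % of untreated control.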

[2] = tested on: protein product expressed by the gene target; settings: cited from earlier work
cellular system = settings: cited from earlier work
[3] = Kinetic solubility in aqueous buffer pH 7.4 by total chemiluminescent nitrogen determination (Analiza); settings: aqueous buffer, pH 7.4, aqueous buffer, kinetic from dmso stock
[4] = tested on: BV2 (mouse microglia) cell line; assay: pHrodo-myelin phagocytosis/cell viability high content imaging assay: phagocytosis signal; type: cell-based
How it was run: (§2)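 Read by high content imaging: the phagocytosis signal plus viability, measured simultaneously, with three extracted measurements. Imaging was done roughly 22 hours after pHrodo-myelin was added.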

[5] = tested on: HMC3 (human microglia) cell line; assay: as above; type: cell-based
How it was run: as §2

[6] = tested on: HMC3 (human microglia) cell line; assay: pHrodo-myelin phagocytosis/cell viability high content imaging assay: viability (cell count, nuclear area, nuclear intensity); settings: for 1. Cell count (% control) / 2. Nuclear Area (% Control) / 3. Nuclear DNA Intensity (% control): 48 hours treatment
How it was run: as §1

physchem = settings: pH 7.4, aqueous buffer, kinetic from dmso stock
[7] = gene target CYP19A1, ref Probe Miner

COCC(=O)O[C@]1(CCN(C)CCCc2nc3ccccc3[nH]2)CCc2cc(F)ccc2[C@@H]1C(C)C [Mibefradil]
Mouse microglial cytotoxicity at 10 μM (<70% control) ([1]; BV2 cells, 10 μM, cell count <70% control): Y (The compound was found to be cytotoxic (cell count threshold: <70% control) when murine immortalized microglial cells were dosed at 10 μM (Y: yes))
Reported on-target biochemical potency [2]: 0.98 µM
Reported as cell active (<10 μM) (cellular system): Y (key: Published data supports that the compound is active in a cellular system when dosed at 10 μM (Y/N); Published data supports that the compound is active in a cellular system when dosed at 10 μM (Y/N))
solubility kinetic [3]: 128 µM (≈ 63.4 µg/mL)
Inhibition of mouse microglial phagocytosis at 10 μM (<70% control) ([4]; BV2 cells): Y (The compound was found to inhibit phagocytosis (response threshold: <70% control) when murine immortalized microglial cells were dosed at 10 μM (Y: yes))
Inhibition of human microglial phagocytosis at 10 μM (<70% control) ([5]; HMC3 cells, 10 μM): Y (The compound was found to inhibit phagocytosis (response threshold: <70% control) when human immortalized microglial cells were dosed at 10 μM (Y: yes))

CCCCNc1ncc2c(-c3ccc(CN4CCN(C)CC4)cc3)cn([C@H]3CC[C@H](O)CC3)c2n1 [UNC2025C, reference compound]
Mouse microglial cytotoxicity at 10 μM (<70% control) ([1]; 10 μM, BV2): Y (The compound was found to be cytotoxic (cell count threshold: <70% control) when murine immortalized microglial cells were dosed at 10 μM (Y: yes))
1. Cell count (% control) ([1]; BV2 cells, 10 uM compound): 17.3 % control
2. Nuclear Area (% Control) ([1]; BV2 cells, 10 uM compound): 101.1 % Control
3. Nuclear DNA Intensity (% control) ([1]; BV2 cells, 10 uM compound): 19.1 % control
Human microglial cytotoxicity at 10 μM (<70% control) ([6]; 10 μM, HMC3): Y (The compound was found to be cytotoxic (cell count threshold: <70% control) when human immortalized microglial cells were dosed at 10 μM (Y: yes))
1. Cell count (% control) ([6]; HMC3 cells, 10 uM compound): 38.6 % control
2. Nuclear Area (% Control) ([6]; HMC3 cells, 10 uM compound): 85.2 % Control
3. Nuclear DNA Intensity (% control) ([6]; HMC3 cells, 10 uM compound): 178.5 % control
Reported on-target biochemical potency ([2]; target MERTK, ref PubMed 25068800, 27649555): 0.00074 µM
solubility kinetic [3]: 43.4 µM (≈ 20.7 µg/mL)
Inhibition of mouse microglial phagocytosis at 10 μM (<70% control) ([4]; BV2): Y (The compound was found to inhibit phagocytosis (response threshold: <70% control) when murine immortalized microglial cells were dosed at 10 μM (Y: yes))
phagocytosis in mouse microglial cells (< 70% control inhibition, > 150% control stimulation) ([4]; BV2, 10 μM, pHrodo-myelin): inhibited
4. Phagocytosis (% control) ([4]; BV2 cells, 10 uM compound, 48 hours treatment, pHrodo-myelin final 20 hours): 0.168 % control
Inhibition of human microglial phagocytosis at 10 μM (<70% control) ([5]; 10 μM, HMC3): Y (The compound was found to inhibit phagocytosis (response threshold: <70% control) when human immortalized microglial cells were dosed at 10 μM (Y: yes))
phagocytosis in human microglial cells (< 70% control inhibition, > 150% control stimulation) ([5]; HMC3, 10 μM, pHrodo-myelin): inhibited
4. Phagocytosis (% control) ([5]; HMC3 cells, 10 uM compound, 48 hours treatment, pHrodo-myelin final 20 hours): 1.1 % control

CC(=O)N1CCN(c2ccc(OCC3COC(Cn4ccnc4)(c4ccc(Cl)cc4Cl)O3)cc2)CC1 (stereo not shown) [Ketoconazole]
Reported on-target biochemical potency [2]: 64 µM
Reported as cell active (<10 μM) (cellular system): Y (key: Published data supports that the compound is active in a cellular system when dosed at 10 μM (Y/N); Published data supports that the compound is active in a cellular system when dosed at 10 μM (Y/N))
solubility kinetic [3]: 120 µM (≈ 63.6 µg/mL)
Stimulation of mouse microglial phagocytosis at 10 μM (>150% control) ([4]; BV2, 10 μM): Y (The compound was found to stimulate phagocytosis (response threshold: >150% control) when murine immortalized microglial cells were dosed at 10 μM (Y: yes))

CC(C)CCOc1ccc(N)cc1 [CP-24879]
solubility kinetic (physchem): 56.8 µM (≈ 10.2 µg/mL)
Reported on-target biochemical potency ([2]; gene target FADS1 and FADS2, ref PubMed 11939906, 27832159, 9605428): 3.4 µM

CNC(=O)[C@H](Cc1c[nH]c2ccccc12)NC(=O)[C@@H](CC(=O)NO)CC(C)C [Ilomastat]
solubility kinetic (physchem): 104 µM (≈ 40.2 µg/mL)
Reported on-target biochemical potency ([2]; target gene MMP17, ref Probe Miner, PubMed 33513143): 0.0034 µM

O=C(Cn1cc(S(=O)(=O)N2CCCC2)ccc1=O)c1ccc(-c2cccc(C(F)(F)F)c2)cc1 [UNC8367A, reference compound]
Mouse microglial cytotoxicity at 10 μM (<70% control) ([1]; BV2, 10 μM): Y (The compound was found to be cytotoxic (cell count threshold: <70% control) when murine immortalized microglial cells were dosed at 10 μM (Y: yes))
1. Cell count (% control) ([1]; BV2, compound 10 uM): 56.7 % control
2. Nuclear Area (% Control) ([1]; BV2, compound 10 uM): 109.8 % Control
3. Nuclear DNA Intensity (% control) ([1]; BV2, compound 10 uM): 118.7 % control
1. Cell count (% control) ([6]; HMC3, compound 10 uM): 109.8 % control
2. Nuclear Area (% Control) ([6]; HMC3, compound 10 uM): 95.2 % Control
3. Nuclear DNA Intensity (% control) ([6]; HMC3, compound 10 uM): 108.6 % control
Reported on-target biochemical potency ([2]; gene target DOCK1, ref PubMed 28467910, 29432733): 8.4 µM
solubility kinetic [3]: 6.5 µM (≈ 3.19 µg/mL)
Stimulation of mouse microglial phagocytosis at 10 μM (>150% control) ([4]; BV2, 10 μM): Y (The compound was found to stimulate phagocytosis (response threshold: >150% control) when murine immortalized microglial cells were dosed at 10 μM (Y: yes))
4. Phagocytosis (% control) ([4]; BV2, compound 10 uM, pHrodo-myelin): 408.0 % control
phagocytosis in human microglial cells (< 70% control inhibition, > 150% control stimulation) ([5]; HMC3, 10 μM, pHrodo-myelin): stimulatory
4. Phagocytosis (% control) ([5]; HMC3, compound 10 uM, pHrodo-myelin): 146.9 % control

COc1ccc2[nH]c([S+]([O-])Cc3ncc(C)c(OC)c3C)nc2n1 (stereo not shown) [Tenatoprazole]
solubility kinetic (physchem): 131 µM (≈ 45.4 µg/mL)
Reported on-target biochemical potency ([2]; gene target DHTKD1, ref PubMed 32633484): 2.7 µM

Clc1ccccc1C(c1ccccc1)(c1ccccc1)n1ccnc1 [Clotrimazole]
Mouse microglial cytotoxicity at 10 μM (<70% control) ([1]; BV2, 10 μM): Y (The compound was found to be cytotoxic (cell count threshold: <70% control) when murine immortalized microglial cells were dosed at 10 μM (Y: yes))
solubility kinetic (physchem): 4.2 µM (≈ 1.45 µg/mL)
Reported on-target biochemical potency [2, 7]: 0.0018 µM

Cc1ccc(F)c(NC(=O)Nc2ccc(-c3cccc4[nH]nc(N)c34)cc2)c1 [Linifanib]
Mouse microglial cytotoxicity at 10 μM (<70% control) ([1]; BV2, 10 μM): Y (The compound was found to be cytotoxic (cell count threshold: <70% control) when murine immortalized microglial cells were dosed at 10 μM (Y: yes))
Human microglial cytotoxicity at 10 μM (<70% control) ([6]; HMC3, 10 μM): Y (The compound was found to be cytotoxic (cell count threshold: <70% control) when human immortalized microglial cells were dosed at 10 μM (Y: yes))
Reported on-target biochemical potency [2, 7]: 0.005 µM
solubility kinetic [3]: 0.6 µM (≈ 0.225 µg/mL)
Stimulation of mouse microglial phagocytosis at 10 μM (>150% control) ([4]; BV2, 10 μM): Y (The compound was found to stimulate phagocytosis (response threshold: >150% control) when murine immortalized microglial cells were dosed at 10 μM (Y: yes))
Inhibition of human microglial phagocytosis at 10 μM (<70% control) ([5]; HMC3, 10 μM): Y (The compound was found to inhibit phagocytosis (response threshold: <70% control) when human immortalized microglial cells were dosed at 10 μM (Y: yes))

CN1CCN(CCCN2c3ccccc3Sc3ccc(C(F)(F)F)cc32)CC1 [Trifluoperazine]
Mouse microglial cytotoxicity at 10 μM (<70% control) ([1]; 10 μM, BV2): Y (The compound was found to be cytotoxic (cell count threshold: <70% control) when murine immortalized microglial cells were dosed at 10 μM (Y: yes))
Reported on-target biochemical potency [2]: 5.2 µM
Reported as cell active (<10 μM) (cellular system): Y (key: Published data supports that the compound is active in a cellular system when dosed at 10 μM (Y/N); Published data supports that the compound is active in a cellular system when dosed at 10 μM (Y/N))
Inhibition of human microglial phagocytosis at 10 μM (<70% control) ([5]; 10 μM, HMC3): Y (The compound was found to inhibit phagocytosis (response threshold: <70% control) when human immortalized microglial cells were dosed at 10 μM (Y: yes))
